What was measured:
Experiment in all cases: ITC
Conditions in all cases: 135 mM KCl, 15 mM NaCl, 10 mM MgCl2; 50 mM TrisCl pH 8.0, 37 °C
[1] = test system: metE aptamer A153G (RNA, riboswitch) GGCAUUUUCUCUUAUCGAGAGUUGGGCGAGGGAUUGGCCUUUUGACCCCAACAGCAACCGACCGUAAUACCAUUGUGAAAUGGGGCGCACUGCUUUUCGCGCCGAGACUGAUGUCUCAUAAGGCGCGGUGCUAAUUCCAUCAGAUUGUGUCUGAGAGAUGAGAGAGGCAGUG
[2] = test system: B. subtilis metE wild type aptamer domain (RNA, riboswitch) GGCAUUUUCUCUUAUCGAGAGUUGGGCGAGGGAUUGGCCUUUUGACCCCAACAGCAACCGACCGUAAUACCAUUGUGAAAUGGGGCGCACUGCUUUUCGCGCCGAGACUGAUGUCUCAUAAGGCACGGUGCUAAUUCCAUCAGAUUGUGUCUGAGAGAUGAGAGAGGCAGUG
[3] = test system: metE aptamer A153C (RNA, riboswitch) GGCAUUUUCUCUUAUCGAGAGUUGGGCGAGGGAUUGGCCUUUUGACCCCAACAGCAACCGACCGUAAUACCAUUGUGAAAUGGGGCGCACUGCUUUUCGCGCCGAGACUGAUGUCUCAUAAGGCCCGGUGCUAAUUCCAUCAGAUUGUGUCUGAGAGAUGAGAGAGGCAGUG
[4] = test system: metE aptamer U157A (RNA, riboswitch) GGCAUUUUCUCUUAUCGAGAGUUGGGCGAGGGAUUGGCCUUUUGACCCCAACAGCAACCGACCGUAAUACCAUUGUGAAAUGGGGCGCACUGCUUUUCGCGCCGAGACUGAUGUCUCAUAAGGCACGGAGCUAAUUCCAUCAGAUUGUGUCUGAGAGAUGAGAGAGGCAGUG
[5] = test system: metE aptamer A89G/Δ153 (RNA, riboswitch) GGCAUUUUCUCUUAUCGAGAGUUGGGCGAGGGAUUGGCCUUUUGACCCCAACAGCAACCGGCCGUAAUACCAUUGUGAAAUGGGGCGCACUGCUUUUCGCGCCGAGACUGAUGUCUCAUAAGGCCGGUGCUAAUUCCAUCAGAUUGUGUCUGAGAGAUGAGAGAGGCAGUG

Q: Which results are given for `C[S+](CC[C@H](N)C(=O)O)C[C@H]1O[C@@H](n2cnc3c(N)ncnc32)[C@H](O)[C@@H]1O` (some centres unmarked)?
A: KD,obs [1]: 150 ± 20 nM; KD,obs [2]: 79 ± 8 nM; KD,obs [3]: 150 ± 20 nM; KD,obs [4]: 24000 ± 7000 nM; KD,obs [5]: 16000 ± 1000 nM

Reference: article PMC4624507 (2015)
